Measured values: patent publication US11407647B2, “Synthetic caustic composition” (FLUID ENERGY GROUP LTD., priority 2017, dated 2022)
Read-outs that look alike come from different tables or passages of the source.

How the values were obtained:
[1] = Freezing point of caustic solutions; type: physicochemical
human skin = conditions: in vivo
[2] = background statement on sodium hydroxide solutions, cited from earlier work

Row | freezing point [1] [°C] | SMILES | effect on human skin (human skin) | freeze point (begins to freeze / will freeze) ([2]; listed as 25% solution) [Celsius] | freeze point (begins to freeze / will freeze) [2] [Celsius]
1 | −18 | [Na+].[OH-] [25 wt % NaOH, sodium hydroxide] | immediate burning of the skin, followed with scarring | −17 | 
2 |  | [Na+].[OH-] [50% sodium hydroxide solution, sodium hydroxide] |  |  | 14
